Results taken from patent publication US3985740A, “7-[D-(α-amino-α-phenyl-, 2-thienyl- and 3-thienylacetamido)]-3-(5-methylthiazol-2-yl)carbonylthiomethyl-3-cephem -4-carboxylic acids” (Bristol-Myers Company, priority 1974, dated 1976).
≈ marks a conversion by molar mass, not a printed value. Like-named read-outs stand apart in the source and are kept apart here.

Tests used:
Str. pyogenes A9604 = assay: M.I.C. by tube dilution; type: cell-based; conditions: Streptococcus pyogenes, Str. pyogenes + 5% serum, 50% Nutrient Broth - 45% Antibiotic Assay Broth, overnight 37° C.
[1] = system: S. aureus methicillin-resistant A15097; assay: M.I.C. by tube dilution; type: cell-based; conditions: at 10^-^3 dilution, overnight 37° C.; for MIC: Staphylococcus aureus
[2] = Blood levels in the mouse after oral administration; type: in vivo; conditions: mouse, oral, 100 mgm./kg.; for concentration at 0.5 h / concentration at 1 h / concentration at 2 h / concentration at 3.5 h: blood, 100 mg/kg, read-out: Blood Level; for concentration at 1 h: 1 hr. after administration; for concentration at 2 h: 2 hrs. after administration; for concentration at 3.5 h: 3.5 hrs. after administration
Method: Blood levels in the mouse after oral administration were
determined with the following results:

E. coli A9675 = assay: M.I.C. by tube dilution; type: cell-based; conditions: at 10^-^4 dilution, overnight 37° C.; for MIC: Escherichia coli, A9675
Pr. morganii A15153 = assay: M.I.C. by tube dilution; type: cell-based; conditions: Morganella morganii
K. pneumoniae A15130 = assay: M.I.C. by tube dilution; type: cell-based; conditions: at 10^-^4 dilution, overnight 37° C.; for MIC: Klebsiella pneumoniae, A15130
Ps. aeruginosa A9843A = assay: M.I.C. by tube dilution; type: cell-based; conditions: Pseudomonas aeruginosa
E. coli Juhl A15119 = assay: M.I.C. by tube dilution; type: cell-based; conditions: Escherichia coli, JUHLA15119
Sal. enteritidis A9531 = assay: M.I.C. by tube dilution; type: cell-based; conditions: at 10^-^4 dilution, overnight 37° C.; for MIC: Salmonella enterica, ENTERITIDIS
D. pneumoniae A9585 = assay: M.I.C. by tube dilution; type: cell-based; conditions: Streptococcus pneumoniae, D. pneumoniae + 5% serum, 50% Nutrient Broth - 45% Antibiotic Assay Broth, overnight 37° C.
Pr. mirabilis A9900 = assay: M.I.C. by tube dilution; type: cell-based; conditions: at 10^-^4 dilution, overnight 37° C.; for MIC: Proteus mirabilis, A9900
S. aureus A9748 = assay: M.I.C. by tube dilution; type: cell-based; conditions: overnight 37° C.; for MIC: Staphylococcus aureus
Ser. marcescens A20019 = assay: M.I.C. by tube dilution; type: cell-based; conditions: Serratia marcescens
K. pneumoniae A9977 = assay: M.I.C. by tube dilution; type: cell-based; conditions: at 10^-^4 dilution, overnight 37° C.; for MIC: Klebsiella pneumoniae, A9977
[3] = system: S. aureus BX 1633-2 A9606; assay: M.I.C. by tube dilution; type: cell-based; conditions: overnight 37° C.; for MIC: Staphylococcus aureus
S. aureus Smith A9537 = assay: M.I.C. by tube dilution; type: cell-based; conditions: Staphylococcus aureus, overnight 37° C.
[4] = at 10^-^4 dilution, overnight 37° C., read-out: M.I.C.
[5] = A9748, at 10^-^2 dilution, read-out: M.I.C.
[6] = A9748, at 10^-^3 dilution, read-out: M.I.C.
[7] = BX16332A9606, at 10^-^2 dilution, read-out: M.I.C.
[8] = BX16332A9606, at 10^-^3 dilution, read-out: M.I.C.
[9] = SMITHA9537, + 50% serum, at 10^-^4 dilution, read-out: M.I.C.
[10] = SMITHA9537, at 10^-^4 dilution, read-out: M.I.C.

Structure (SMILES): Cc1csc(C(=O)SCC2=C(C(=O)O)N3C(=O)C(NC(=O)[C@H](N)c4ccccc4)[C@H]3SC2)n1 (stereo partly drawn) [Compound 556, 7-[D-α-aminophenylacetamido]-3-(4-methylthiazol-2-yl)carbonylthiomethyl-3-cephem-4-carboxylic acid]
- MIC (Str. pyogenes A9604): 2.5 µg/mL
- MIC [1]: 4 µg/mL (≈ 7.93 µM)
- concentration at 0.5 h ([2]; 0.5 hrs. after administration): 15200 ng/mL
- concentration at 1 h [2]: 16200 ng/mL
- concentration at 2 h [2]: 7800 ng/mL
- concentration at 3.5 h [2]: < 2100 ng/mL
- Blood Level ([2]; 0.5 hrs. after administration): 15200 ng/mL
- MIC (E. coli A9675; read-out: M.I.C.): 32 µg/mL (≈ 63.4 µM)
- MIC (Pr. morganii A15153): 125 µg/mL (≈ 248 µM)
- MIC (K. pneumoniae A15130): 125 µg/mL (≈ 248 µM)
- MIC (Ps. aeruginosa A9843A): 125 µg/mL (≈ 248 µM)
- MIC (E. coli Juhl A15119; [4]): 32 µg/mL (≈ 63.4 µM)
- MIC (Sal. enteritidis A9531; read-out: M.I.C.): 1 µg/mL (≈ 1.98 µM)
- MIC (D. pneumoniae A9585): 1.3 µg/mL
- MIC (Pr. mirabilis A9900; read-out: M.I.C.): 32 µg/mL (≈ 63.4 µM)
- MIC (S. aureus A9748; [5]): 8 µg/mL (≈ 15.9 µM)
- MIC (S. aureus A9748; [6]): 4 µg/mL (≈ 7.93 µM)
- MIC (Ser. marcescens A20019; [4]): 63 µg/mL (≈ 125 µM)
- MIC (K. pneumoniae A9977; read-out: M.I.C.): 32 µg/mL (≈ 63.4 µM)
- MIC [3, 7]: 4 µg/mL (≈ 7.93 µM)
- MIC [3, 8]: 1.3 µg/mL (≈ 2.58 µM)
- MIC (S. aureus Smith A9537; [9]): 63 µg/mL
- MIC (S. aureus Smith A9537; [10]): 1.3 µg/mL (≈ 2.58 µM)

Structure (SMILES): Cc1nc(C(=O)SCC2=C(C(=O)O)N3C(=O)C(NC(=O)[C@H](N)c4ccccc4)[C@H]3SC2)sc1C (stereo partly drawn) [Compound 587, 7-[D-α-aminophenylacetamido]-3-(4,5-dimethylthiazol-2-yl)carbonylthiomethyl-3-cephem-4-carboxylic acid]
- MIC (Str. pyogenes A9604): 2.5 µg/mL
- MIC [1]: 4 µg/mL (≈ 7.71 µM)
- concentration at 0.5 h ([2]; 0.5 hrs. after administration): 6300 ng/mL
- concentration at 1 h [2]: 8900 ng/mL
- concentration at 2 h [2]: 4300 ng/mL
- concentration at 3.5 h [2]: 2000 ng/mL
- MIC (E. coli A9675; read-out: M.I.C.): 32 µg/mL (≈ 61.7 µM)
- MIC (Pr. morganii A15153): > 125 µg/mL
- MIC (K. pneumoniae A15130): > 125 µg/mL
- MIC (Ps. aeruginosa A9843A): > 125 µg/mL
- MIC (E. coli Juhl A15119; [4]): 16 µg/mL (≈ 30.8 µM)
- MIC (Sal. enteritidis A9531; read-out: M.I.C.): 2.5 µg/mL (≈ 4.82 µM)
- MIC (D. pneumoniae A9585): 2.5 µg/mL
- MIC (Pr. mirabilis A9900): > 125 µg/mL
- MIC (S. aureus A9748; [5]): 16 µg/mL (≈ 30.8 µM)
- MIC (S. aureus A9748; [6]): 4 µg/mL (≈ 7.71 µM)
- MIC (Ser. marcescens A20019): > 125 µg/mL
- MIC (K. pneumoniae A9977; read-out: M.I.C.): 32 µg/mL (≈ 61.7 µM)
- MIC [3, 7]: 1 µg/mL (≈ 1.93 µM)
- MIC [3, 8]: 0.6 µg/mL (≈ 1.16 µM)
- MIC (S. aureus Smith A9537; [9]): > 63 µg/mL
- MIC (S. aureus Smith A9537; [10]): 0.3 µg/mL (≈ 0.578 µM)

Structure (SMILES): N[C@@H](C(=O)NC1C(=O)N2C(C(=O)O)=C(CSC(=O)c3cscn3)CS[C@H]12)c1ccccc1 (stereo partly drawn) [Compound 591, 7-[D-(-)α-aminophenylacetamido]-3-(thiazol-4-yl)carbonylthiomethyl-3-cephem-4-carboxylic acid]
- MIC (Str. pyogenes A9604): 0.02 µg/mL
- MIC [1]: 2 µg/mL (≈ 4.08 µM)
- concentration at 0.5 h ([2]; 0.5 hrs. after administration): 6500 ng/mL
- concentration at 1 h [2]: 7900 ng/mL
- concentration at 2 h [2]: 4400 ng/mL
- concentration at 3.5 h [2]: 3200 ng/mL
- MIC (E. coli A9675; read-out: M.I.C.): 4 µg/mL (≈ 8.15 µM)
- MIC (Pr. morganii A15153; [4]): 32 µg/mL (≈ 65.2 µM)
- MIC (K. pneumoniae A15130; read-out: M.I.C.): 8 µg/mL (≈ 16.3 µM)
- MIC (Ps. aeruginosa A9843A): > 125 µg/mL
- MIC (E. coli Juhl A15119; [4]): 1 µg/mL (≈ 2.04 µM)
- MIC (Sal. enteritidis A9531; read-out: M.I.C.): 0.16 µg/mL (≈ 0.326 µM)
- MIC (D. pneumoniae A9585): 0.02 µg/mL
- MIC (Pr. mirabilis A9900; read-out: M.I.C.): 1 µg/mL (≈ 2.04 µM)
- MIC (S. aureus A9748; [5]): 16 µg/mL (≈ 32.6 µM)
- MIC (S. aureus A9748; [6]): 4 µg/mL (≈ 8.15 µM)
- MIC (Ser. marcescens A20019): 125 µg/mL (≈ 255 µM)
- MIC (K. pneumoniae A9977; read-out: M.I.C.): 1 µg/mL (≈ 2.04 µM)
- MIC [3, 7]: 2 µg/mL (≈ 4.08 µM)
- MIC [3, 8]: 0.6 µg/mL (≈ 1.22 µM)
- MIC (S. aureus Smith A9537; [9]): 8 µg/mL
- MIC (S. aureus Smith A9537; [10]): 0.3 µg/mL (≈ 0.612 µM)

Structure (SMILES): N[C@@H](C(=O)NC1C(=O)N2C(C(=O)O)=C(CSC(=O)c3cncs3)CS[C@H]12)c1ccccc1 (stereo partly drawn) [Compound 602, 7-[D-(-)-α-aminophenylacetamido]-3-(thiazol-5-yl)carbonylthiomethyl-3-cephem-4-carboxylic acid]
- MIC (Str. pyogenes A9604): 0.6 µg/mL
- MIC [1]: 4 µg/mL (≈ 8.15 µM)
- concentration at 0.5 h ([2]; 0.5 hrs. after administration): 11700 ng/mL
- concentration at 1 h [2]: 17600 ng/mL
- concentration at 2 h [2]: 9700 ng/mL
- concentration at 3.5 h [2]: 3300 ng/mL
- MIC (E. coli A9675; read-out: M.I.C.): 16 µg/mL (≈ 32.6 µM)
- MIC (Pr. morganii A15153): 125 µg/mL (≈ 255 µM)
- MIC (K. pneumoniae A15130; read-out: M.I.C.): 32 µg/mL (≈ 65.2 µM)
- MIC (Ps. aeruginosa A9843A): > 125 µg/mL
- MIC (E. coli Juhl A15119; [4]): 4 µg/mL (≈ 8.15 µM)
- MIC (Sal. enteritidis A9531; read-out: M.I.C.): 0.3 µg/mL (≈ 0.612 µM)
- MIC (D. pneumoniae A9585): 0.6 µg/mL
- MIC (Pr. mirabilis A9900; read-out: M.I.C.): 16 µg/mL (≈ 32.6 µM)
- MIC (S. aureus A9748; [5]): 63 µg/mL (≈ 128 µM)
- MIC (S. aureus A9748; [6]): 8 µg/mL (≈ 16.3 µM)
- MIC (Ser. marcescens A20019): > 125 µg/mL
- MIC (K. pneumoniae A9977; read-out: M.I.C.): 16 µg/mL (≈ 32.6 µM)
- MIC [3, 7]: 16 µg/mL (≈ 32.6 µM)
- MIC [3, 8]: 1.3 µg/mL (≈ 2.65 µM)
- MIC (S. aureus Smith A9537; [9]): > 63 µg/mL
- MIC (S. aureus Smith A9537; [10]): 0.3 µg/mL (≈ 0.612 µM)

Structure (SMILES): CC1=C(C(=O)O)N2C(=O)[C@@H](NC(=O)[C@H](N)c3ccccc3)[C@H]2SC1 [cephalexin, reference compound]
- MIC [1]: 32 µg/mL (≈ 92.1 µM)
- M.I.C. [1]: 63 µg/mL
- MIC (E. coli A9675): 16 µg/mL (≈ 46.1 µM)
- M.I.C. (E. coli A9675): 32 µg/mL
- MIC (Pr. morganii A15153): > 125 µg/mL
- MIC (K. pneumoniae A15130): 16 µg/mL (≈ 46.1 µM)
- M.I.C. (K. pneumoniae A15130): 32 µg/mL
- MIC (Ps. aeruginosa A9843A): > 125 µg/mL
- MIC (E. coli Juhl A15119): 8 µg/mL (≈ 23 µM)
- MIC (Sal. enteritidis A9531): 4 µg/mL (≈ 11.5 µM)
- M.I.C. (Sal. enteritidis A9531): 2 µg/mL
- MIC (Pr. mirabilis A9900): 4 µg/mL (≈ 11.5 µM)
- M.I.C. (Pr. mirabilis A9900): 8 µg/mL
- MIC (S. aureus A9748; A9748, at 10^-^2 dilution): 125 µg/mL (≈ 360 µM)
- MIC (S. aureus A9748; A9748, at 10^-^3 dilution): 32 µg/mL (≈ 92.1 µM)
- M.I.C. (S. aureus A9748; at 10^-^2 dilution): 63 µg/mL
- M.I.C. (S. aureus A9748; at 10^-^3 dilution): 63 µg/mL
- MIC (Ser. marcescens A20019): > 125 µg/mL
- MIC (K. pneumoniae A9977): 8 µg/mL (≈ 23 µM)
- M.I.C. (K. pneumoniae A9977): 4 µg/mL
- MIC ([3]; BX16332A9606, at 10^-^2 dilution): 8 µg/mL (≈ 23 µM)
- MIC ([3]; BX16332A9606, at 10^-^3 dilution): 4 µg/mL (≈ 11.5 µM)
- M.I.C. ([3]; at 10^-^2 dilution): 4 µg/mL
- M.I.C. ([3]; at 10^-^3 dilution): 2 µg/mL
- MIC (S. aureus Smith A9537; SMITHA9537, + 50% serum, at 10^-^4 dilution): 2.5 µg/mL
